Values quoted from earlier work in patent US20110251239A1, “COMBINATION THERAPY FOR THE TREATMENT OF DEMENTIA” (EISAI INC., priority 2010, published 2011).

Legend:
[1] = tested on: cytochrome P450 isozymes CYP1A2, CYP2C9, CYP2E1 and CYP3A4/5
[2] = tested on: CYP450 enzymes (CYP1A2, -2A6, -2C9, -2D6, -2E1, -3A4)

## CC12CC3CC(C)(C1)CC(N)(C3)C2 [memantine, 1-amino-3,5-dimethyl adamantane]
[1]
  induction of cytochrome P450 isozymes: does not induce
[2]
  inhibition of CYP450 enzymes: minimal inhibition
